Data taken from patent publication US9873680B2 (Gilead Sciences, Inc., priority 2014, dated 2018).
Read-outs that look alike come from different tables or passages of the source.

How the values were obtained:
[1] = system: HIV-IIIb; test: Test A: Antiviral Assay in MT4 Cells; assay type: cell-based, HIV-1
Outline: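 Readout was CellTiter-Glo luminescence after 10 min room-temperature lysis, taken 5 days after plating at 37 °C. The 2000 MT-4 cells per well, mixed 1 h beforehand with HIV-IIIb (m.o.i. 0.003), went straight onto the diluted compound.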

[2] = Test B: Cytotoxicity Assay; assay type: cell-based; details: human, uninfected MT-4 cells, CellTiter-Glo
Method: Test B: Cytotoxicity Assay Compound cytotoxicity and the corresponding CC50 values was determined using the same protocol as described in the antiviral assay (Test A) except that uninfected cells were used.

[3] = Human immunodeficiency virus 1, MT4, 120 h, 0.2 μM drug concentration, MT-4 cells infected with HIV-IIIb, 5 days, values normalized to 100%, average over time, read-out: % inhibition at 0.2 μM (percent inhibition of virus-induced cell killing)

| Compound | inhibition at 0.2 µM ([1]; Human immunodeficiency virus 1, IIIB, MT4, 120 h, read-out: % inhibition at 0.2 μM (percent inhibition of virus-induced cell killing)) [%] | CC50 at 5 days [2] [µM] | inhibition at 0.2 µM ([1]; Human immunodeficiency virus 1, IIIB, MT4, 0.2 μM drug concentration, comparison with previously published compounds, read-out: Response at 0.2 μM (percent inhibition of virus-induced cell killing)) [%] | inhibition at 2 µM ([1]; Human immunodeficiency virus 1, IIIB, MT4, 2 μM drug concentration, comparison with previously published compounds, read-out: Response at 2 μM (percent inhibition of virus-induced cell killing)) [%] | inhibition at 0.2 µM [1, 3] [%] |
| --- | --- | --- | --- | --- | --- |
| Cn1nc(NS(C)(=O)=O)c2c(Cl)ccc(-c3ccc(C#CC(C)(C)N4CCOC4=O)nc3[C@H](Cc3cc(F)cc(F)c3)NC(=O)Cn3nc(C(F)F)c4c3C(F)(F)[C@@H]3C[C@H]43)c21 [Compound 60D, N—((S)-1-(3-(4-chloro-1-methyl-3-(methylsulfonamido)-1H-indazol-7-yl)-6-(3-methyl-3-(2-oxooxazolidin-3-yl)but-1-yn-1-yl)pyridin-2-yl)-2-(3,5-difluorophenyl)ethyl)-2-((3bS,4aR)-3-(difluoromethyl)-5,5-difluoro-3b,4,4a,5-tetrahydro-1H-cyclopropa[3,4]cyclopenta[1,2-c]pyrazol-1-yl)acetamide] | 94 | > 27.8 |  |  |  |
| NC(=O)c1cc(-c2ccc(C#CC3(O)CCOCC3)nc2[C@H](Cc2cc(F)cc(F)c2)NC(=O)Cn2nc(C(F)(F)F)c3c2C(F)(F)[C@@H]2C[C@H]32)ccc1F [Compound 35, 5-(2-((S)-1-(2-((3bS,4aR)-5,5-difluoro-3-(trifluoromethyl)-3b,4,4a,5-tetrahydro-1H-cyclopropa[3,4]cyclopenta[1,2-c]pyrazol-1-yl)acetamido)-2-(3,5-difluorophenyl)ethyl)-6-((4-hydroxytetrahydro-2H-pyran-4-yl)ethynyl)pyridin-3-yl)-2-fluorobenzamide] |  | 10.1 | 86 | 86 | 86 |
| Cc1cc2ncn(CC(=O)N[C@@H](Cc3cc(F)cc(F)c3)c3nc(C#CC4(O)CCOCC4)ccc3-c3ccc4n[nH]c(=O)n4c3C)c2cc1C [Compound 3D, (S)—N-(2-(3,5-difluorophenyl)-1-(6-((4-hydroxytetrahydro-2H-pyran-4-yl)ethynyl)-3-(5-methyl-3-oxo-2,3-dihydro-[1,2,4]triazolo[4,3-a]pyridin-6-yl)pyridin-2-yl)ethyl)-2-(5,6-dimethyl-1H-benzo[d]imidazol-1-yl)acetamide] |  | 31.6 |  |  | 91 |
| Cn1nc(NS(C)(=O)=O)c2cccc(-c3ccc(C#CC4(O)CC(F)(F)C4)nc3[C@H](Cc3cc(F)cc(F)c3)NC(=O)Cn3nc(C(F)(F)F)c4c3C(F)(F)[C@@H]3C[C@H]43)c21 [Compound 105D] |  | 6.46 |  |  | 88 |
| CC1CC(O)(C#Cc2ccc(-c3ccc(Cl)c4c(NS(C)(=O)=O)nn(C)c34)c([C@H](Cc3cc(F)cc(F)c3)NC(=O)Cn3nc(C(F)(F)F)c4c3C(F)(F)[C@@H]3C[C@H]43)n2)CC(C)O1 (stereo partly drawn) [Compound 48C, N-((1S)-1-(3-(4-chloro-1-methyl-3-(methylsulfonamido)-1H-indazol-7-yl)-6-((4-hydroxy-2,6-dimethyltetrahydro-2H-pyran-4-yl)ethynyl)pyridin-2-yl)-2-(3,5-difluorophenyl)ethyl)-2-((3bS,4aR)-5,5-difluoro-3-(trifluoromethyl)-3b,4,4a,5-tetrahydro-1H-cyclopropa[3,4]cyclopenta[1,2-c]pyrazol-1-yl)acetamide] |  | 7.27 |  |  | 92 |
| Cn1cnc(C#Cc2ccc(-c3ccc(Cl)c4c(NS(C)(=O)=O)nn(C)c34)c([C@H](Cc3cc(F)cc(F)c3)NC(=O)Cn3nc(C(F)F)c4c3C(F)(F)[C@@H]3C[C@H]43)n2)c1 [Compound 78, N—((S)-1-(3-(4-chloro-1-methyl-3-(methylsulfonamido)-1H-indazol-7-yl)-6-((1-methyl-1H-imidazol-4-yl)ethynyl)pyridin-2-yl)-2-(3,5-difluorophenyl)ethyl)-2-((3bS,4aR)-3-(difluoromethyl)-5,5-difluoro-3b,4,4a,5-tetrahydro-1H-cyclopropa[3,4]cyclopenta[1,2-c]pyrazol-1-yl)acetamide] |  | > 36.6 |  |  | 87 |
